Laboratory results published in ChEMBL document CHEMBL6109065, “Synthesis, antibacterial and anticancer activity of azo-based and aminomethylene derivatives of cyclic β-keto sulfones” (Bioorg Med Chem Lett, 2025).
≈ marks a conversion by molar mass, not a printed value.

Tests used:
Staphylococcus aureus = assay: Antibacterial activity against Staphylococcus aureus assessed as reduction in bacterial growth; type: functional
Escherichia coli = assay: Antibacterial activity against Escherichia coli assessed as reduction in bacterial growth; type: functional
Pseudomonas aeruginosa = assay: Antibacterial activity against Pseudomonas aeruginosa assessed as reduction in bacterial growth; type: functional
MDA-MB-231 [1] = assay: Cytotoxicity against human MDA-MB-231 cells assessed as inhibition of cell growth at 0.5 mM relative to control; type: functional
[2] = Cytotoxicity against MAEC cells assessed as inhibition of cell growth at 0.5 mM relative to control; type: toxicity, cell-based; details: mouse
MDA-MB-231 [3] = assay: Cytotoxicity against human MDA-MB-231 cells assessed as inhibition of cell viability; type: functional, cell-based
[4] = Cytotoxicity against MAEC cells assessed as cell viability; type: toxicity, cell-based; details: mouse

| MIC (Staphylococcus aureus) [µM] | MIC (Escherichia coli) [µM] | MIC (Pseudomonas aeruginosa) [µM] | SMILES | inhibition at 500 µM (MDA-MB-231 [1]) [%] | inhibition at 500 µM [2] [%] | EC50 (MDA-MB-231 [3]) [µM] | EC50 [4] [µM] |
| --- | --- | --- | --- | --- | --- | --- | --- |
| 94 (≈ 34.9 µg/mL) | 188 (≈ 69.8 µg/mL) | 750 (≈ 279 µg/mL) | NS(=O)(=O)c1ccc(N/N=C2\C(=O)C3(CCCC3)CS2(=O)=O)cc1 | 81 | 1 | – | – |
| 188 (≈ 86.2 µg/mL) | 188 (≈ 86.2 µg/mL) | > 750 | CC(C)(C)OC(=O)N1CC2(C1)CS(=O)(=O)/C(=N/Nc1cccc(S(N)(=O)=O)c1)C2=O | 63 | 6 | – | – |
| 750 (≈ 208 µg/mL) | 750 (≈ 208 µg/mL) | 750 (≈ 208 µg/mL) | O=C1/C(=C\NCc2ccccc2)S(=O)(=O)CC12CC2 | 90 | 17 | 270 | – |
| 188 (≈ 64.9 µg/mL) | 188 (≈ 64.9 µg/mL) | 375 (≈ 130 µg/mL) | CC1(C)CS(=O)(=O)/C(=N/Nc2ccc(S(N)(=O)=O)cc2)C1=O | 51 | 3 | – | – |
| 23 (≈ 7.94 µg/mL) | 188 (≈ 64.9 µg/mL) | > 750 | CC1(C)CS(=O)(=O)/C(=N/Nc2cccc(S(N)(=O)=O)c2)C1=O | 78 | 1 | – | – |
| 94 (≈ 26.3 µg/mL) | 750 (≈ 210 µg/mL) | 750 (≈ 210 µg/mL) | CC1(C)CS(=O)(=O)/C(=C/NCc2ccccc2)C1=O | 88 | 10 | 283 | – |
| 375 (≈ 182 µg/mL) | 750 (≈ 365 µg/mL) | > 750 | CC(C)(C)OC(=O)N1CCC2(CC1)CS(=O)(=O)/C(=N/Nc1ccc(S(N)(=O)=O)cc1)C2=O | 93 | 11 | 249 | – |
| > 750 | > 750 | 375 (≈ 98.7 µg/mL) | O=C1/C(=C\Nc2ccccc2)S(=O)(=O)CC12CC2 | 19 | 6 | – | – |
| 188 (≈ 69.8 µg/mL) | 188 (≈ 69.8 µg/mL) | > 750 | NS(=O)(=O)c1cccc(N/N=C2\C(=O)C3(CCCC3)CS2(=O)=O)c1 | 21 | 10 | – | – |
| 23 (≈ 10.5 µg/mL) | 188 (≈ 86.2 µg/mL) | 750 (≈ 344 µg/mL) | CC(C)(C)OC(=O)N1CC2(C1)CS(=O)(=O)/C(=N/Nc1ccc(S(N)(=O)=O)cc1)C2=O | 21 | 20 | – | – |
| 375 (≈ 182 µg/mL) | 188 (≈ 91.5 µg/mL) | > 750 | CC(C)(C)OC(=O)N1CCC2(CC1)CS(=O)(=O)/C(=N/Nc1cccc(S(N)(=O)=O)c1)C2=O | 37 | 7 | – | – |
| > 750 | > 750 | 750 (≈ 230 µg/mL) | Cc1ccc(N/N=C2\C(=O)C3(CCCC3)CS2(=O)=O)cc1 | 66 | 26 | – | – |
| 94 (≈ 24.9 µg/mL) | 188 (≈ 49.9 µg/mL) | 375 (≈ 99.5 µg/mL) | CC1(C)CS(=O)(=O)/C(=C/Nc2ccccc2)C1=O | 7 | 7 | – | – |
| 188 (≈ 64.6 µg/mL) | 94 (≈ 32.3 µg/mL) | > 750 | NS(=O)(=O)c1ccc(N/N=C2\C(=O)C3(CC3)CS2(=O)=O)cc1 | 4 | 1 | – | – |
| 375 (≈ 140 µg/mL) | 750 (≈ 280 µg/mL) | 750 (≈ 280 µg/mL) | CCC1(C)CCS(=O)(=O)/C(=N/Nc2ccc(S(N)(=O)=O)cc2)C1=O (stereo not given) | 57 | 100 | – | 78 |
| 375 (≈ 64.6 µg/mL) | 750 (≈ 129 µg/mL) | 750 (≈ 129 µg/mL) | Nc1cccc(S(N)(=O)=O)c1 | 30 | 100 | – | 93 |
| 750 (≈ 129 µg/mL) | 375 (≈ 64.6 µg/mL) | 750 (≈ 129 µg/mL) | Nc1ccc(S(N)(=O)=O)cc1 [SULFANILAMIDE] | 57 | 6 | – | – |
